Toxic doses and inconclusive results are not listed. No stated cut-off is given here; in the data, active means T/C of 150% or more; inactive means T/C below 125%.
System: L1210 leukemia ip in BDF1 mice, survival T/C
Test: NCI In Vivo Anticancer Drug Screen. Data for tumor model L1210 Leukemia (intraperitoneal) in B6D2F1 (BDF1) mice
Details: endpoint: mean survival time, higher = longer survival
In short: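 Survival endpoint. Drug-treated group vs vehicle group, expressed as T divided by C. Tumor passaged by transplantation.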

[1] = dose: 50.0 mg/kg/injection, schedule: Q01DX009 (ip), vehicle: saline with Tween-80
[2] = dose: 100.0 mg/kg/injection, schedule: Q01DX009 (ip), vehicle: saline with Tween-80
[3] = dose: 100.0 mg/kg/injection, schedule: Q04DX003 (ip), vehicle: saline with Tween-80
[4] = dose: 200.0 mg/kg/injection, schedule: Q01DX009 (ip), vehicle: saline with Tween-80
[5] = dose: 200.0 mg/kg/injection, schedule: Q04DX003 (ip), vehicle: saline with Tween-80
[6] = dose: 400.0 mg/kg/injection, schedule: Q01DX009 (ip), vehicle: saline with Tween-80
[7] = dose: 400.0 mg/kg/injection, schedule: Q04DX003 (ip), vehicle: saline with Tween-80
[8] = dose: 100.0 mg/kg/injection, schedule: Q04DX003 (ip), vehicle: Klucel (hydroxypropylcellulose) (HPC)
[9] = dose: 75.0 mg/kg/injection, schedule: Q01DX001 (ip), vehicle: saline
[10] = dose: 150.0 mg/kg/injection, schedule: Q01DX001 (ip), vehicle: saline
[11] = dose: 100.0 mg/kg/injection, schedule: Q01DX009 (ip), vehicle: Klucel (hydroxypropylcellulose) (HPC)
[12] = dose: 200.0 mg/kg/injection, schedule: Q04DX003 (ip), vehicle: Klucel (hydroxypropylcellulose) (HPC)
[13] = dose: 400.0 mg/kg/injection, schedule: Q04DX003 (ip), vehicle: Klucel (hydroxypropylcellulose) (HPC)

Measured: T/C

CC(=O)Oc1ccc2c(c1)C(=O)C(Br)C1C2CCC2(C)C(OC(C)=O)CCC12 (stereo not given)
inactive: dose: 30.0 mg/kg/injection, schedule: Q01DX015 (sc), vehicle: steriod suspending solution 96 % of control | dose: 60.0 mg/kg/injection, schedule: Q01DX015 (sc), vehicle: steriod suspending solution 97 % of control | dose: 100.0 mg/kg/injection, schedule: Q01DX001 (sc), vehicle: steriod suspending solution 116 % of control | dose: 120.0 mg/kg/injection, schedule: Q01DX015 (sc), vehicle: steriod suspending solution 97 % of control | dose: 200.0 mg/kg/injection, schedule: Q01DX001 (sc), vehicle: steriod suspending solution 104 % of control | dose: 240.0 mg/kg/injection, schedule: Q01DX015 (sc), vehicle: steriod suspending solution 100 % of control | dose: 400.0 mg/kg/injection, schedule: Q01DX001 (sc), vehicle: steriod suspending solution 96 % of control

Cc1ccc(NS(=O)(=O)c2ccc(Br)cc2)c(C)c1
inactive: dose: 25.0 mg/kg/injection, schedule: Q01DX009 (ip), vehicle: saline with Tween-80 98 % of control | [1] 96 % of control | [2] 96 % of control | [3] 98 % of control | [4] 98 % of control | [5] 91 % of control | [6] 101 % of control | [7] 93 % of control

COC(OC)c1cc(=O)[nH]c(=S)[nH]1
inactive: dose: 25.0 mg/kg/injection, schedule: Q04DX003 (ip), vehicle: Klucel (hydroxypropylcellulose) (HPC) 100 % of control | dose: 50.0 mg/kg/injection, schedule: Q01DX001 (ip), vehicle: Klucel (hydroxypropylcellulose) (HPC) 111 % of control | dose: 50.0 mg/kg/injection, schedule: Q04DX003 (ip), vehicle: Klucel (hydroxypropylcellulose) (HPC) 91 % of control | dose: 100.0 mg/kg/injection, schedule: Q01DX001 (ip), vehicle: Klucel (hydroxypropylcellulose) (HPC) 90 % of control | [8] 92 % of control | dose: 200.0 mg/kg/injection, schedule: Q01DX001 (ip), vehicle: Klucel (hydroxypropylcellulose) (HPC) 98 % of control

CC12C(=O)C(C(c3ccccc3)=C1c1ccccc1)C1C(=O)OC(=O)C12 (stereo not given)
inactive: [9] 95 % of control | [10] 86 % of control | dose: 300.0 mg/kg/injection, schedule: Q01DX001 (ip), vehicle: saline 95 % of control

c1ccc2cc(-c3csc4ccccc34)ccc2c1
inactive: [11] 104 % of control | [8] 110 % of control | dose: 200.0 mg/kg/injection, schedule: Q01DX009 (ip), vehicle: Klucel (hydroxypropylcellulose) (HPC) 94 % of control | [12] 97 % of control | dose: 400.0 mg/kg/injection, schedule: Q01DX009 (ip), vehicle: Klucel (hydroxypropylcellulose) (HPC) 103 % of control | [13] 100 % of control

CCOC(=O)C1(C(=O)OCC)CCC(O)N1C(=O)c1cc(OC)c(OC)cc1[N+](=O)[O-] (stereo not given)
inactive: [8] 97 % of control | [12] 99 % of control | [13] 97 % of control

CCCCCCCCCCC(O)CCCCCCCCCC
inactive: [2] 96 % of control | [4] 105 % of control | [6] 93 % of control

O=C(C(=S)N1CCOCC1)c1ccccc1
inactive: [8] 101 % of control | [12] 104 % of control | [13] 101 % of control

Cc1cc([N+](=O)[O-])c(C)cc1O
inactive: [9] 91 % of control | [10] 94 % of control

CC1(C)N=C(N)N=C(N)N1c1ccc(OCCCOc2ccccc2)c(Cl)c1
inactive: dose: 50.0 mg/kg/injection, schedule: Q01DX009 (ip), vehicle: Klucel (hydroxypropylcellulose) (HPC) 98 % of control | [11] 102 % of control | [8] 92 % of control | [12] 91 % of control

O=S(c1ccccc1)N(OCc1ccccc1)S(=O)c1ccccc1 (stereo not given)
inactive: dose: 25.0 mg/kg/injection, schedule: Q04DX002 (ip), vehicle: Klucel (hydroxypropylcellulose) (HPC) 98 % of control | dose: 50.0 mg/kg/injection, schedule: Q04DX002 (ip), vehicle: Klucel (hydroxypropylcellulose) (HPC) 104 % of control | dose: 100.0 mg/kg/injection, schedule: Q04DX002 (ip), vehicle: Klucel (hydroxypropylcellulose) (HPC) 95 % of control

O=C1C(Br)=Cc2cccc3cccc1c23
inactive: dose: 25.0 mg/kg/injection, schedule: Q01DX009 (ip), vehicle: saline sonified 100 % of control | dose: 50.0 mg/kg/injection, schedule: Q01DX009 (ip), vehicle: saline sonified 97 % of control | dose: 100.0 mg/kg/injection, schedule: Q01DX009 (ip), vehicle: saline sonified 100 % of control | [2] 101 % of control | [8] 90 % of control | [3] 97 % of control | [4] 104 % of control | [5] 95 % of control | [6] 97 % of control | [13] 87 % of control | [7] 103 % of control

COC(=O)C(CSCSC)NC(=O)Nc1ccc(F)cc1 (stereo not given)
inactive: [1] 98 % of control | [2] 93 % of control | [3] 95 % of control | [4] 94 % of control | [5] 93 % of control | [7] 95 % of control

From PubChem BioAssay AID248 (DTP/NCI, 2004)
